Key:
Test in all cases: Test E greenhouse herbicide test, pre- and postemergence
Type in all cases: in vivo
Conditions in all cases: Postemergence
[1] = test system: sandbur (southem sandbur, Cenchrus echinatus)
Excerpt: (§1) Seeds of plant species selected from corn (Zea mays), soybean (Glycine max), velvetleaf (Abutilon theophrasti), lambsquarters (Chenopodium album), wild poinsettia (Euphorbia heterophylla), pigweed, palmer (palmer pigweed, Amaranthus palmeri), waterhemp (common waterhemp, Amaranthus rudis), surinam grass (Brachiaria decumbens), crabgrass, large (large crabgrass, Digitaria sanguinalis), crabgrass, Brazilian (Brazilian crabgrass, Digitaria horizontalis), panicum, fall (fall panicum, Panicum dichotomiflorum), foxtail, giant (giant foxtail, Setaria faberii), foxtail, green (green foxtail, Setaria viridis), goosegrass (Eleusine indica), johnsongrass (Sorghum halepense), ragweed (common ragweed, Ambrosia elatior), barnyardgrass (Echinochloa crus-galli), sandbur (southem sandbur, Cenchrus echinatus), arrowleaf sida (Sida rhombifolia), Italian ryegrass (Lolium multiflorum), dayflower (Virginia (VA) dayflower, Commelina virginica), field bindweed (Convolvulus arvensis), momingglory (Ipomoea coccinea), nightshade (eastern black nightshade, Solanum ptycanthum), kochia (Kochia scoparia), nutsedge, yellow (yellow nutsedge, Cyperus esculentus), horseweed (Conyza canadensis), and beggarticks (hairy beggarticks, Bidens pilosa), were planted into a silt loam soil and treated preemergence with test chemicals formulated in a non-phytotoxic solvent mixture which included a surfactant.
(§2) At the same time, plants from these crop and weed species and also waterhemp_RES1, (ALS & Triazine resistant common waterhemp, Amaranthus rudis), and waterhemp_RES2, (ALS & HPPD resistant common waterhemp, Amaranthus rudis) were planted in pots containing Redi-Earth® planting medium (Scotts Company, 14111 Scottslawn Road, Marysville, Ohio 43041) comprising spaghnum peat moss, vermiculite, wetting agent and starter nutrients were treated with postemergence applications of test chemicals formulated in the same manner. Plants ranged in height from 2 to 18 cm for postemergence treatments (1- to 4-leaf stage). Treated plants and controls were maintained in a greenhouse for 14 to 21 d, after which time all species were compared to controls and visually evaluated. Plant response ratings, summarized in Table E, are based on a scale of 0 to 100 where 0 is no effect and 100 is complete control. A dash (-) response means no test result.

[2] = test system: arrowleaf sida (Sida rhombifolia)
Excerpt: as §1, §2

[3] = test system: panicum, fall (fall panicum, Panicum dichotomiflorum)
Excerpt: as §1, §2

[4] = test system: ragweed (common ragweed, Ambrosia elatior)
Excerpt: as §1, §2

[5] = test system: pigweed, palmer (palmer pigweed, Amaranthus palmeri)
Excerpt: as §1, §2

[6] = test system: crabgrass, Brazilian (Brazilian crabgrass, Digitaria horizontalis)
Excerpt: as §1, §2

[7] = test system: beggarticks (hairy beggarticks, Bidens pilosa)
Excerpt: as §1, §2

[8] = test system: soybean (Glycine max)
Excerpt: as §1, §2

[9] = test system: corn (Zea mays)
Excerpt: as §1, §2

[10] = test system: kochia (Kochia scoparia)
Excerpt: as §1, §2

[11] = 62 g ai/ha, scale 0 to 100 (0 no effect, 100 complete control)
[12] = 125 g ai/ha, scale 0 to 100 (0 no effect, 100 complete control)
[13] = 250 g ai/ha, scale 0 to 100 (0 no effect, 100 complete control)
[14] = 31 g ai/ha, visual, scale 0 no effect to 100 complete control
[15] = 16 g ai/ha, visual, scale 0 no effect to 100 complete control

Row | SMILES | Plant response rating, Sandbur [1, 12] | Plant response rating, Sandbur [1, 14] | Plant response rating, Arrowleaf Sida [2, 11] | Plant response rating, Arrowleaf Sida [2, 12] | Plant response rating, Arrowleaf Sida [2, 14] | Plant response rating, Panicum, Fall [3, 11] | Plant response rating, Panicum, Fall [3, 12] | Plant response rating, Panicum, Fall [3, 14] | Plant response rating, Ragweed [4, 11] | Plant response rating, Ragweed [4, 12] | Plant response rating, Ragweed [4, 14] | Plant response rating, Pigweed, Palmer [5, 11] | Plant response rating, Pigweed, Palmer [5, 12] | Plant response rating, Pigweed, Palmer [5, 14] | Plant response rating, Crabgrass, Brazil [6, 11] | Plant response rating, Crabgrass, Brazil [6, 12] | Plant response rating, Crabgrass, Brazil [6, 14] | Plant response rating, Beggarticks [7, 11] | Plant response rating, Beggarticks [7, 12] | Plant response rating, Beggarticks [7, 14] | also measured
1 | CCC(=O)Oc1c(C)nn(C)c(=O)c1-c1c(C)sc2ccc(C)cc12 [Compound 42] | 60 | 35 | 60 | 70 | 20 | 50 | 80 | 60 | 85 | 95 | 90 | 75 | 60 | 70 | 35 | 40 | 20 | 95 | 100 | 95 | Plant response rating, Sandbur [1, 11]: 50; Plant response rating, Sandbur [1, 13]: 60; Plant response rating, Arrowleaf Sida [2, 13]: 80; Plant response rating, Panicum, Fall [3, 13]: 95; Plant response rating, Ragweed [4, 13]: 90; Plant response rating, Pigweed, Palmer [5, 13]: 95; Plant response rating, Crabgrass, Brazil [6, 13]: 50; Plant response rating, Beggarticks [7, 13]: 100; Plant response rating, Soybean [8, 11]: 20; Plant response rating, Soybean [8, 12]: 30; Plant response rating, Soybean [8, 13]: 50; Plant response rating, Soybean [8, 14]: 10; Plant response rating, Corn [9, 11]: 15; Plant response rating, Corn [9, 12]: 15; Plant response rating, Corn [9, 13]: 20; Plant response rating, Corn [9, 14]: 10; Plant response rating, Kochia [10, 11]: 85; Plant response rating, Kochia [10, 12]: 95; Plant response rating, Kochia [10, 13]: 98; Plant response rating, Kochia [10, 14]: 75
2 | CC(=O)Oc1c(C)nn(C)c(=O)c1-c1ccc(F)c2ccccc12 [Compound 90] | 50 | 40 | 90 | 90 | 80 | 60 | 70 | 60 | 80 | 90 | 75 | 50 | 60 | 65 | 50 | 70 | 55 | 98 | 100 | 90 | Plant response rating, Sandbur [1, 15]: 40; Plant response rating, Arrowleaf Sida [2, 15]: 70; Plant response rating, Panicum, Fall [3, 15]: 40; Plant response rating, Ragweed [4, 15]: 50; Plant response rating, Pigweed, Palmer [5, 15]: 40; Plant response rating, Crabgrass, Brazil [6, 15]: 50; Plant response rating, Beggarticks [7, 15]: 85; Plant response rating, Soybean [8, 12]: 60; Plant response rating, Soybean [8, 15]: 20; Plant response rating, Soybean [8, 14]: 30; Plant response rating, Corn [9, 11]: 5; Plant response rating, Corn [9, 12]: 0; Plant response rating, Corn [9, 15]: 5; Plant response rating, Corn [9, 14]: 0; Plant response rating, Kochia [10, 11]: 95; Plant response rating, Kochia [10, 12]: 100; Plant response rating, Kochia [10, 15]: 90; Plant response rating, Kochia [10, 14]: 90
3 | COc1nn(C)c(=O)c(-c2c(C)sc3ccc(Cl)cc23)c1O [Compound 100] | 40 | 20 | 60 | 70 | 50 | 50 | 70 | 30 | 85 | 90 | 75 | 30 | 40 | 20 | 50 | 40 | 25 | 80 | 90 | 75 | Plant response rating, Sandbur [1, 13]: 50; Plant response rating, Arrowleaf Sida [2, 13]: 75; Plant response rating, Panicum, Fall [3, 13]: 80; Plant response rating, Ragweed [4, 13]: 90; Plant response rating, Pigweed, Palmer [5, 13]: 50; Plant response rating, Crabgrass, Brazil [6, 13]: 50; Plant response rating, Beggarticks [7, 13]: 100; Plant response rating, Soybean [8, 12]: 0; Plant response rating, Soybean [8, 13]: 0; Plant response rating, Soybean [8, 14]: 0; Plant response rating, Corn [9, 11]: 5; Plant response rating, Corn [9, 12]: 0; Plant response rating, Corn [9, 13]: 0; Plant response rating, Corn [9, 14]: 0; Plant response rating, Kochia [10, 11]: 80; Plant response rating, Kochia [10, 12]: 80; Plant response rating, Kochia [10, 13]: 100; Plant response rating, Kochia [10, 14]: 60
4 | CSCC(=O)Oc1c(C)nn(C)c(=O)c1-c1cccc2ccccc12 [Compound 171] | 50 | 30 | 80 | 90 | 80 | 50 | 60 | 40 | 75 | 90 | 60 | 50 | 60 | 50 | 50 | 50 | 40 | 95 | 100 | 80 | Plant response rating, Sandbur [1, 13]: 60; Plant response rating, Arrowleaf Sida [2, 13]: 95; Plant response rating, Panicum, Fall [3, 13]: 75; Plant response rating, Ragweed [4, 13]: 98; Plant response rating, Pigweed, Palmer [5, 13]: 70; Plant response rating, Crabgrass, Brazil [6, 13]: 60; Plant response rating, Beggarticks [7, 13]: 100; Plant response rating, Soybean [8, 12]: 50; Plant response rating, Soybean [8, 13]: 70; Plant response rating, Soybean [8, 14]: 40; Plant response rating, Corn [9, 11]: 0; Plant response rating, Corn [9, 12]: 0; Plant response rating, Corn [9, 13]: 0; Plant response rating, Corn [9, 14]: 0; Plant response rating, Kochia [10, 11]: 95; Plant response rating, Kochia [10, 12]: 100; Plant response rating, Kochia [10, 13]: 100; Plant response rating, Kochia [10, 14]: 90

— patent US10597388B2, “Pyridazinone herbicides” (FMC CORPORATION, priority 2014, dated 2020)
